{
  "source": "patent US20250099405A1",
  "about": "“COMPOSITIONS, METHODS, AND DEVELOPMENT OF ARID4B INHIBITORS” (University of Kentucky Research Foundation, priority 2022, published 2025)",
  "key": {"[1]": {"experiment": "Tolerability of ARD150 in mice", "format": "in vivo", "settings": "125 mg/kg", "description": "Representative HE images of liver and spleen from mice treated with vehicle or ARD150. Images from vehicle and the highest doses of ARD150 (125 mg/kg) were shown (B). […] Three biological replicates for each time point.\nThe rational development of a small molecule inhibitor (SMI) of a given protein-protein pathway involves a multidisciplinary approach: computational studies, chemical synthesis, characterization of compounds, and biological characterization. ARID4B lacks a defined crystal structure which requires a heavier emphasis on in silico studies to develop SMIs for this pathway. […] Initial biological characterization through cell-based assays and in vitro/in vivo studies have shown that ARD150 targets ARID4B and is tolerable in mice at extremely high concentrations (125 mg/kg). […] Thus, even though ARD150 is a first-in-class inhibitor, further optimization is necessary to improve its characteristics as a theoretical treatment option for endocrine-resistant breast cancer."}, "HA-ARID4BAC": {"target": "T1, HA-ARID4BAC (Homo sapiens, UniProt Q4LE39, DEL571-624)", "T1 construct": "transfected with vector, full-length ARID4B or ARID4B deletion mutants; expressed in transfected cells; host or cells: HEK-293T", "T1 sequence (Q4LE39 with tags, fused parts or gaps DEL571-624)": "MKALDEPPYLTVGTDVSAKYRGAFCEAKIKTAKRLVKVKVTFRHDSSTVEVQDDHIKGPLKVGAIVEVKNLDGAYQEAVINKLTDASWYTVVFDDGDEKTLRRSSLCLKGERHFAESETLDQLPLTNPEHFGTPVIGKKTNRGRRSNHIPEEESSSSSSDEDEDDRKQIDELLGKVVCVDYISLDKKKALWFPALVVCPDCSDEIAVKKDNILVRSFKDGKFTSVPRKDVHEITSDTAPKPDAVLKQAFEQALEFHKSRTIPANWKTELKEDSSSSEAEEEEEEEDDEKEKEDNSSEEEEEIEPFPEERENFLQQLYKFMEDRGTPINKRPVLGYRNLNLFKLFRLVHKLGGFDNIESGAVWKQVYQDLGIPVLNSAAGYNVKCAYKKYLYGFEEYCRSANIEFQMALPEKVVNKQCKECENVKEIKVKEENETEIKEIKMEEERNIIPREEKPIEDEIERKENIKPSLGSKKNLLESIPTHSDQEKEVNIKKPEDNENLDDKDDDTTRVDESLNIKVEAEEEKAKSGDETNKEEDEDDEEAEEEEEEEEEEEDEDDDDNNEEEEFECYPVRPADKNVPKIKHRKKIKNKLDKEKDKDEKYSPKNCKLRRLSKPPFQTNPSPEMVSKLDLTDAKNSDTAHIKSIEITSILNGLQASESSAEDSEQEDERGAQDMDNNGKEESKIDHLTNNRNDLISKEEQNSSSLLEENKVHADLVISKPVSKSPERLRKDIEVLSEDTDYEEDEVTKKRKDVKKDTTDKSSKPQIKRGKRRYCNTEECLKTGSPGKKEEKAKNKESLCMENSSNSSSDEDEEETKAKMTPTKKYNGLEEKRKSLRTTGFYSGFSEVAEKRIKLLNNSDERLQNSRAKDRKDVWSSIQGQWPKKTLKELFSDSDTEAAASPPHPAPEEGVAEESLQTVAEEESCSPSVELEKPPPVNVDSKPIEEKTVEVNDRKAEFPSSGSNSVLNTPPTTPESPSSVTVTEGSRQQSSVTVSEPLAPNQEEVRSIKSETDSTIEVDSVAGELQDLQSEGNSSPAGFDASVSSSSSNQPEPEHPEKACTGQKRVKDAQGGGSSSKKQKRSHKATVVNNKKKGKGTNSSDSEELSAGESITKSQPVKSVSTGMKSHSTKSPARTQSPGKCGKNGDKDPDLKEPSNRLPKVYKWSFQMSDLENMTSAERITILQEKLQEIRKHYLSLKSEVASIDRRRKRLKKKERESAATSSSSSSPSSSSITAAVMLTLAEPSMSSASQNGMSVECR", "experiment": "CETSA in HEK-293T cells expressing the chromodomain deletion mutant", "format": "cell-based", "settings": "10 μM, 2 h", "description": "(B-C) show cells expressing HA-ARID4B (C) or HA-ARID4BIC (D) treated or not with ARD150 (10 μM) for 2 h were used for CESTA. […] (D-E) show cells expressing HA-ARID4B (D) or Flag-ARID4A (E) treated or not with RWR-18 (10 μM) for 2 h were used for CESTA. […] Data are means±SEM from three experiments. *P<0.05, **P<0.01, ns, not significant.\nUsing CETSA (cellular thermal shift assay) to examine whether ARD150 or RWR-18 binds to ARID4B, MCF7 cells treated or not with ARD150 or RWR-18 for 2 h were collected, followed by heating at 46, 49, 52, 55, and 58° C. to denature and precipitate ARID4B protein, cell lysis, removal of cell debris and aggregates by centrifugation, and finally detection of remaining thermostable ARID4B protein by western blot. The ARID4B aggregation temperatures without ARD150 were determined to be 49-52° C., but shifted to 52-55° C. after treatment with ARD150 and even more so with RWR-18 (FIG. 15A-D). To determine whether ARD150 and RWR-18 targets the chromodomain of ARID4B, CESTA was performed using chromodomain deletion mutant (ARID4BAC). HEK-293T cells expressing HA-ARID4B or HA-ARID4BAC were treated or not with ARD150 (10 μM) for 2 h and processed for CESTA."}},
  "data": [
    {"smiles": "COc1ccc(C(=O)NCCCN2CCOCC2)cc1OC", "note": "[ARD150]", "values": [
      {"measurement": "tolerability in mice", "setting": "[1]", "result": "tolerable"},
      {"measurement": "shift of aggregation temperatures of HA-ARID4BAC (chromodomain deletion mutant)", "setting": "HA-ARID4BAC", "result": "no shift was observed"}
    ]}
  ]
}
